Source: patent publication US6930104B2, “Heterocyclic derivatives” (Takeda Chemical Industries, Ltd., priority 2001, dated 2005)
Each block holds one molecule with its values, some of them ahead of it.

Columns and labels:
[1] = test system: sAPP secretion in PC12h cells; assay: Stimulatory effects on sAPP secretion (Western blotting of culture supernatant); type: cell-based, rat; conditions: 5 hours after addition; for increase in sAPP production compared to the control group: averaged from triplicate wells
Experimental: (§1) PC12h cells, a subspecies of rat-derived pheochromocytoma PC12 cells, were provided by the late Professor Hiroshi Hatanaka (Osaka University, Japan). Dulbecco's modified Eagle's medium (DMEM), phosphate buffered saline (PBS), HEPES (N-2-hydroxyethylpiperazine-N′-2-ethanesulfonic acid) buffer (pH 7.4), horse serum (HS) and a penicillin (5000 U/ml)/streptomycin (5 mg/ml) mixture were purchased from Gibco BRL. Fetal calf serum (FCS) was purchased from Bioscience PTY. Transferrin, insulin and progesterone were purchased from Sigma. The flasks used for culture were manufactured by Falcon, and the collagen-coated 96-well and 6-well multiwell plates used for assay were manufactured by Iwaki Glass Co., Ltd. (Japan). An LDH assay kit (LDH cytotoxic test Wako) and an anti-βAPP antibody 22C11 were purchased from Wako Pure Chemical Industries, Ltd. (Japan) and Chemicon, respectively. All other chemicals used were commercially available and of reagent grade.
PC12h cells were grown in DMEM culture medium supplemented with 10% FCS, 5% HS and penicillin/streptomycin, and then released by pipetting. The cells were seeded in collagen-coated 6-well plates at a confluency of 50% to 70% and allowed to stand for 1 day. On the following day, the wells were washed once with 10 mM HEPES/DMEM (1 ml) and then filled with 10 mM HEPES/DMEM culture medium (0.5 ml), followed by addition of Example No. 5 or 32. After 5 hours, the culture supernatant was collected from each well. Trichloroacetic acid (final concentration: 15%) was added to the culture supernatant to precipitate proteins, which were then concentrated. After addition of SDS-PAGE sample buffer (Daiichi Pure Chemicals Co., Ltd., Japan), each sample was boiled for 5 minutes, subjected to SDS-PAGE (10/20% gel, ATTO) and then transferred to a PVDF membrane (Bio-Rad Laboratories) at 2 mA/cm^2 for 60 minutes. […] An ECL Plus (Amersham) was used for detection and the signals were digitized by an LAS-1000 plus (Fuji film, Japan), followed by quantification with NIH-image software.

[2] = test system: PC12h cells; assay: Inhibitory effects on glutamate-induced cell death (LDH activity of living cells); type: cell-based, rat; conditions: concentration of 1 μM, 72 hours
Experimental: as §1
PC12h cells were seeded in 96-well plates at a density of 2×10^4 cells/cm^2. […] After 72 hours, living cells were counted. Cell counts were determined as follows: after removal of the culture medium, living cells were solubilized in 0.1% Tween 20-containing PBS and assayed for LDH activity. The results were expressed as % of control, whose LDH activity was set to 100.

SMILES: COc1ccc(C(=O)N2c3ccccc3C(N3CCCc4ccccc43)CC2C)cc1OC (single isomer, unassigned; (-)) [Example 5, (−)-2,4-cis-1-(3,4-Dimethoxybenzoyl)-2-methyl-4-(1,2,3,4-tetrahydroquinolin-1-yl)-1,2,3,4-tetrahydroquinoline]
increase in sAPP production compared to the control group ([1]; 10 nM concentration): approximately 2.0 fold
sAPP level in the culture medium as compared to the control group ([1]; Western blotting with anti-βAPP antibody 22C11): concentration-dependent increase
inhibition of cell death induced by addition of 1 mM glutamic acid [2]: completely inhibited

SMILES: COc1ccc(C(=O)N2c3ccccc3C(n3c4ccccc4c4ccccc43)CC2C)cc1OC (stereo not drawn) [Example 32, 2,4-cis-4-(9H-9-Carbazolyl)-1-(3,4-dimethoxybenzoyl)-2-methyl-1,2,3,4-tetrahydroquinoline]
increase in sAPP production compared to the control group ([1]; 1 nM concentration): approximately 2.2 fold

SMILES: COc1ccc(C(=O)N2c3ccccc3C(N3CCCc4c(Cl)cccc43)=CC2C)cc1OC (stereo not shown) [Example 160, 4-(5-Chloro-1,2,3,4-tetrahydroquinolin-1-yl)-1-(3,4-dimethoxybenzoyl)-2-methyl-1,2-dihydroquinoline]
melting point: 162 to 163 °C

The remaining lines, values ahead:

melting point: 167 to 168 °C
SMILES: CCOC(=O)CCCCC1CC(n2c3ccccc3c3ccccc32)c2ccccc2N1C(=O)c1ccc(OC)cc1 (stereo not shown) [Example 157, Ethyl 5-[4-(9H-9-carbazolyl)-1-(4-methoxybenzoyl)-1,2,3,4-tetrahydro-2-quinolinyl]pentanoate]

melting point: 184 to 185 °C
SMILES: COc1ccc(C(=O)N2c3ccccc3C(n3c4ccccc4c4ccccc43)=CC2C)cc1OC (stereo not shown) [Example 161, 4-(9H-9-Carbazolyl)-1-(3,4-dimethoxybenzoyl)-2-methyl-1,2-dihydroquinoline]
